{
  "source": "patent US6420416B2",
  "about": "“Method of treating epilepsy” (Daiichi Pharmaceutical Co., Ltd., priority 2000, dated 2002)",
  "tested_on": "rats subjected to a central fluid percussion injury",
  "assay": "Morris water maze after central fluid percussion injury (traumatic brain injury model)",
  "format": "in vivo, rat",
  "procedure": "As shown in the graph, administration of nefiracetam at 3 mg/kg and 9 mg/kg were tested against a control group treated only with the pharmacological carrier ([…]). The rats were subjected to a central fluid percussion injury, which is a typical animal model for traumatic brain injury. Beginning one day after the injury, the rats were subjected to daily oral drug administrations at the 3 and 9 mg/kg dosage levels. The administration solutions contained the nefiracetam in […] at a concentration sufficient to provide the required dosage level in a single 1 ml/kg dosage of solution. The rats were then tested in the Morris water maze on days 11-15 after injury. On the days that the rats were tested, the drug was administered 15 minutes prior to testing. […] The improvement seen at the 9 mg/kg dosage correlates to a reduction in the cognitive deficit by 55% compared to the control.",
  "data": [
    {"smiles": "Cc1cccc(C)c1NC(=O)CN1CCCC1=O", "note": "[nefiracetam, N-(2,6-dimethyl-phenyl)-2(2-oxo-1-pyrrolidinyl)acetamide]", "values": [
      {"measurement": "effectiveness in the water maze", "setting": "3 mg/kg daily oral, days 11-15 after injury", "result": "not significantly effective"},
      {"measurement": "reduction in the cognitive deficit compared to the control", "setting": "9 mg/kg daily oral from one day after injury, Morris water maze on days 11-15 after injury, drug 15 minutes prior to testing", "result": 55, "unit": "%"},
      {"measurement": "improvement in brain function as measured by performance in the water maze", "setting": "9 mg/kg daily oral, compared to the control and the 3 mg/kg dosage level, days 11-15 after injury", "result": "significant improvement"}
    ]}
  ]
}
